Data: patent US10766914B2, “DNA alkylating agents” (OBI PHARMA, INC., priority 2015, dated 2020)

How the values were obtained:
SNU-387 = test: TH2870 sensitivity in liver cancer cells; type: cell-based, human; conditions: AKR1C3 expression ++++
A549 NSCLC xenograft = test: Example 4-D antitumor efficacy, ectopic A549 NSCLC xenograft model; type: in vivo, female nude mice (nu/nu)
Excerpt: (§1) Specific pathogen-free homozygous female nude mice (nu/nu, Charles River Laboratories) were used. Mice were given food and water ad libitum and housed in microisolator cages. Four to six week old animals were identified by microchips (Locus Technology, Manchester, Md., USA) at the time of the experiments. All animal studies were approved by the Institutional Animal Care and Use Committee at Threshold Pharmaceuticals, Inc.
(§2) All cell lines were from the American Type Culture Collection (ATCC, Rockville, Md., USA).
(§3) Cells were mixed with Matrigel (50% with exception for 30% in the H460) and 0.2 ml per mouse were subcutaneously implanted to the flank area of the animals. When tumor size reached 100-150 250 mm3, mice were randomized into experimental or vehicle groups with 10 mice/group and treatment was started (Day 1). The tested compounds were formulated in 5% DMSO in D5W. The regimens employed in the examples include IP, QD×5/wk (5 days on, 2 days off) as one cycle, for a total of 2 cycles; IP, once; IP, weekly for total 3 weeks; and IV, weekly for 3 weeks. Tumor growth and body weight were measured twice a week. Tumor volume was calculated as (length×width2)/2. Drug efficacy was assessed as Tumor Growth Inhibition (TGI) and Tumor Growth Delay (TGD). TGI was defined as (1−ΔT/ΔC)×100, where ΔT/ΔC presented the ratio of the change in mean (or median, if variation within the group was relatively large) tumor volume of the treated group and of the control group. TGD was calculated as the extra days for the treated tumor to reach 500 mm3 or 1000 mm3 as compared to the control group. Animals were culled when individual tumor size reached over 2000 mm3 or mean tumor volume exceeded 1000 mm3 in the group. Data are expressed as the mean±SEM. One-way analysis of variance with Dunnett post comparison test (GraphPad Prism 4) or two-tailed student's t-test were used for analysis. A P level <0.05 was considered statistically significant.
The compounds were tested in another A549 model. The compounds were dosed as follows. Daily IP dosing: 5 doses then 2 days off then 5 more doses starting at 100 mm^3 tumors on day 1 (10 animals per group average tumor volume). The antitumor effects and the safety of administration are graphically illustrated below.

NCI-H660 = test: TH2870 sensitivity in prostate cancer cell lines; type: cell-based; conditions: Homo sapiens
SNU-182 = test: TH2870 sensitivity in liver cancer cells; type: cell-based, human; conditions: AKR1C3 expression /
PLC/PRF/5 = test: TH2870 sensitivity in liver cancer cells; type: cell-based, human; conditions: AKR1C3 expression +++
22RV1 = test: TH2870 sensitivity in prostate cancer cell lines; type: cell-based; conditions: Homo sapiens
LIXC-002 = test: TH2870 sensitivity in liver cancer cells; type: cell-based, human; conditions: AKR1C3 expression +++
SNU-423 = test: TH2870 sensitivity in liver cancer cells; type: cell-based, human; conditions: AKR1C3 expression +
PC-3 = test: TH2870 sensitivity in prostate cancer cell lines; type: cell-based; conditions: Homo sapiens
H460 NSCLC xenograft = test: Example 4-I antitumor efficacy, ectopic H460 NSCLC xenograft model; type: in vivo, female nude mice (nu/nu); conditions: iv, Q7D × 3; for TGD500, Days (vs. vehicle) / TGD1000, Days (vs. vehicle): H460; for TGI: H460, 250 mm3 tumors on day 1
Excerpt: as §1, §2, §3
The compound TH-2870 was tested in a H460 model. The compound was dosed follows. 1.5, 5 or 15 mg/kg, IV, weekly for 3 weeks at 250 mm^3 tumors on day 1 (10 animals per group average tumor volume), comparing with docetaxel. The antitumor effects and the safety of administration are graphically illustrated below.

SNU-449 = test: TH2870 sensitivity in liver cancer cells; type: cell-based, human; conditions: AKR1C3 expression ++++
LIXC-066 = test: TH2870 sensitivity in liver cancer cells; type: cell-based, human; conditions: AKR1C3 expression ++
LIXC-003 = test: TH2870 sensitivity in liver cancer cells; type: cell-based, human; conditions: AKR1C3 expression ++++
in vivo = conditions: mouse, ip, 20 mg/kg
Method: The pharmacokinetics of TH2870 were determined in Mouse/Nu-Foxn 1^nu NU/NU mice with A549 (non small cell lung), A375 (melanoma) and 786-O (renal cell) human tumor xenograft models following a single intraperitoneal dose of 20 mg/kg.

JHH-7 = test: TH2870 sensitivity in liver cancer cells; type: cell-based, human
HLF = test: TH2870 sensitivity in liver cancer cells; type: cell-based, human; conditions: AKR1C3 expression /
LIXC-004 = test: TH2870 sensitivity in liver cancer cells; type: cell-based, human; conditions: AKR1C3 expression +++
LIXC-012 = test: TH2870 sensitivity in liver cancer cells; type: cell-based, human; conditions: AKR1C3 expression ++++
LIC-0903 = test: TH2870 sensitivity in liver cancer cells; type: cell-based, human; conditions: AKR1C3 expression ++++
[1] = Pharmacokinetics of TH2870 in CD-1 mice, single IV bolus and single IP dose; conditions: mouse, in vivo
Method: The pharmacokinetics of TH2870 in CD-1 mice following a single intravenous bolus dose (5 mg/kg) and a single intraperitoneal dose (10 mg/kg) were determined.

HuCCT1 = test: TH2870 sensitivity in liver cancer cells; type: cell-based, human
HCCC-9810 = test: TH2870 sensitivity in liver cancer cells; type: cell-based, human; conditions: AKR1C3 expression ++++
[2] = Homo sapiens, read-out: RelIC50

CC(OP(=O)(N1CC1)N1CC1)c1ccc([N+](=O)[O-])c(Oc2cccc(C(=O)N(C)C)c2)c1 (stereo not drawn) [Compound 2870]
Max Inhibition % (SNU-387): 102.8% | TGD 500 (A549 NSCLC xenograft; 20 mg/kg IP QD × 5/wk × 2 wks): >85 days | TGI (A549 NSCLC xenograft; 20 mg/kg IP QD × 5/wk × 2 wks): 95.0% | TGD 500 (A549 NSCLC xenograft; 40 mg/kg IV 2/wk × 2 wks): >85 days | TGI (A549 NSCLC xenograft; 40 mg/kg IV 2/wk × 2 wks): 98.6% | IC50 (NCI-H660): > 300 nM | Max Inhibition % (SNU-182): 19.4% | IC50 (SNU-182; [2]): > 1000 nM | Max Inhibition % (PLC/PRF/5): 53.3% | IC50 (22RV1): 1.9 nM | Max Inhibition % (LIXC-002): 99.1% | IC50 (LIXC-002; [2]): 56 nM | Max Inhibition % (SNU-423): 43.3% | IC50 (SNU-423; [2]): > 1000 nM | IC50 (PC-3): 161 nM | TGD500, Days (vs. vehicle) (H460 NSCLC xenograft; 1.5 mg/kg): 18 days | TGD1000, Days (vs. vehicle) (H460 NSCLC xenograft; 1.5 mg/kg): 18 days | TGI (H460 NSCLC xenograft; 1.5 mg/kg): 100.0% | TGD500, Days (vs. vehicle) (H460 NSCLC xenograft; 5 mg/kg): 36 days | TGD1000, Days (vs. vehicle) (H460 NSCLC xenograft; 5 mg/kg): 38 days | TGI (H460 NSCLC xenograft; 5 mg/kg): 121.3% | TGD500, Days (vs. vehicle) (H460 NSCLC xenograft; 15 mg/kg): 49 days | TGD1000, Days (vs. vehicle) (H460 NSCLC xenograft; 15 mg/kg): 50 days | TGI (H460 NSCLC xenograft; 15 mg/kg): 121.6% | Max Inhibition % (SNU-449): 99.6% | IC50 (SNU-449; [2]): 40 nM | Max Inhibition % (LIXC-066): 75.4% | IC50 (LIXC-066; [2]): 94.1 nM | Max Inhibition % (LIXC-003): 44.6% | IC50 (LIXC-003; [2]): 5.4 nM | Kp (in vivo; Nu-Foxn1nu NU/NU): 0.0079 to 0.326 | Tmax (in vivo; Nu-Foxn1nu NU/NU): 5 min | AUC (in vivo; Nu-Foxn 1nu NU/NU, AUC): 1570 ng·h/mL | Cmax (in vivo; Nu-Foxn 1nu NU/NU, Cmax): 5010 ng/mL | half-life (in vivo; Nu-Foxn 1nu NU/NU, Half-Life): 11.3 min | Max Inhibition % (JHH-7; AKR1C3 expression +++): 69.8% | IC50 (JHH-7; Homo sapiens, JHH7, AKR1C3 expression +++, read-out: RelIC50): 107 nM | Max Inhibition % (HLF): 22.5% | IC50 (HLF; [2]): > 1000 nM | Max Inhibition % (LIXC-004): 83.6% | IC50 (LIXC-004; [2]): 31.3 nM | Max Inhibition % (LIXC-012): 87.1% | Max Inhibition % (LIC-0903): 96.3% | IC50 (LIC-0903; [2]): 81.9 nM | AUC ([1]; IP 10 mg/kg): 725 ng·h/mL | Cmax ([1]; IP 10 mg/kg): 4020 ng/mL | Tmax ([1]; IP 10 mg/kg): 5 min | half-life ([1]; IP 10 mg/kg): 9 min | AUC ([1]; IV bolus 5 mg/kg): 963 ng·h/mL | Cmax ([1]; IV bolus 5 mg/kg): 6790 ng/mL | Tmax ([1]; IV bolus 5 mg/kg): 2 min | clearance ([1]; IV bolus 5 mg/kg): 86.5 mL/min/kg | half-life ([1]; IV bolus 5 mg/kg): 6.56 min | Vd ([1]; IV bolus 5 mg/kg, read-out: Vss): 0.668 L/kg | Max Inhibition % (HuCCT1; AKR1C3 expression +): 66.7% | IC50 (HuCCT1; Homo sapiens, HuCCT-1, AKR1C3 expression +, read-out: RelIC50): 125 nM | Max Inhibition % (HCCC-9810): 95.4%
